Test results from ChEMBL document CHEMBL1781936, “Structure-based design of potent aromatase inhibitors by high-throughput docking” (J Med Chem, 2011).

biological target: T1, Aromatase (Homo sapiens, UniProt P11511); assay: Inhibition of human recombinant aromatase using 7-methoxy-4-trifluoromethyl coumarin as substrate by fluorimetric analysis
T1 sequence (P11511 whole entry): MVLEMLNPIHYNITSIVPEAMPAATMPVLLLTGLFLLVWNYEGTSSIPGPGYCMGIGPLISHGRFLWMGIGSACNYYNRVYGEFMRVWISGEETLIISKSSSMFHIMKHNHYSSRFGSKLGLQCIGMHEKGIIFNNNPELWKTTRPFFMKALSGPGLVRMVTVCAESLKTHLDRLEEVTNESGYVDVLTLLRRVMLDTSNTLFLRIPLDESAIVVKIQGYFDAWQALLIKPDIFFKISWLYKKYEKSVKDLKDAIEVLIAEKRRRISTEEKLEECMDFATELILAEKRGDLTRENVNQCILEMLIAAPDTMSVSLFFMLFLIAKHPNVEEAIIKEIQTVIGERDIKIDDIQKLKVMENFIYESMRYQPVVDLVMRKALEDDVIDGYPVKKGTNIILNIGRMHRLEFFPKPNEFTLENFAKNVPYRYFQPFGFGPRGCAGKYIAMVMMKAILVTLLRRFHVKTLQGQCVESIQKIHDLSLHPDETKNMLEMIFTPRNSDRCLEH

| SMILES | IC50 [nM] |
| --- | --- |
| COc1ccc(S(=O)(=O)NCCCn2ccnc2)cc1C(C)(C)C | 440 |
| CC(CNC(=O)c1cc2c([nH]c1=O)CCCCC2)n1cncn1 (racemic) | > 25000 |
| C=CCN(c1ccc(C(=O)NCCCn2ccnc2)cc1)S(C)(=O)=O | 2500 |
| COc1ccc(S(=O)(=O)NCCCn2ccnc2)cc1F | 100 |
| COc1ccc(S(=O)(=O)N2CCCC(Cn3ccnc3)C2)cc1C(C)(C)C (racemic) | 9.4 |
| COc1cc(Cl)c(S(=O)(=O)NCCCn2ccnc2)cc1Cl | 63.7 |
| O=C(CCn1ccnc1)NC[C@H]1CC[C@H](c2ncncc2-c2ccccn2)CC1 | 3100 |
| COc1ccc(S(=O)(=O)NCCCn2ccnc2)cc1C | 61.6 |
| COc1cc(CC(=O)N2CCOC(Cn3ccnc3)C2)cc(OC)c1OC (racemic) | 59.2 |
| CC(=O)c1ccc(S(=O)(=O)N2CCOC(Cn3ccnc3)C2)cc1 (racemic) | 66.5 |
| Cc1ccc(C(=O)NCCCn2ccnc2)cn1 | 10600 |
| Cc1ncc(CNc2ccc(OCC(O)Cn3ccnc3)cc2)cn1 (racemic) | 3500 |
| CCc1[nH]c2ccc(C(=O)NCC(C)n3cncn3)cc2c1C (racemic) | 10600 |
| O=c1oc2cc(OCC(O)Cn3cncn3)ccc2c2c1CCC2 (racemic) | 21700 |
| COc1ccc(S(=O)(=O)N2CCOC(Cn3ccnc3)C2)cc1 (racemic) | 78.8 |
| CC1(C)Oc2ccc(S(=O)(=O)NCCCn3ccnc3)cc2NC1=O | 499 |
| O=C(Cc1ccc(F)cc1)N1CCOC(Cn2ccnc2)C1 (racemic) | 34.5 |
| Cc1cc(C)c(S(=O)(=O)NCCCn2ccnc2)cc1C | 172 |
| COc1cc2c(cc1-c1cncn1CCCn1ccnc1C)OCCCO2 | 498 |
| CCOc1ccc(S(=O)(=O)NCCCn2ccnc2)c2ccccc12 | 761 |
| Cc1ccc(C(=O)NCCCn2ccnc2)cc1[N+](=O)[O-] | 1000 |

Next, values leading:

| IC50 [nM] | SMILES |
| --- | --- |
| 119 | O=S(=O)(NCCCn1ccnc1)c1ccc2c(c1)OCCO2 |
| 441 | O=C(C(=Cc1ccccc1)n1cncn1)c1ccc(Cl)cc1Cl (mixture of isomers) |
| 991 | O=C(Cn1cncn1)NC(CCc1ccccc1)c1ccc2c(c1)OCCO2 (racemic) |
| 16.5 | COc1ccc(C(=O)OC(COc2ccccc2)Cn2ccnc2)cc1 (racemic) |
| 3100 | COc1ccc(C(C)NC(=O)c2ccccc2Cn2cncn2)cc1F (racemic) |
| 46.7 | O=C(Cc1ccc2c(c1)OCO2)N1CCOC(Cn2ccnc2)C1 (racemic) |
| 248 | O=C(Cn1ccnc1)Nc1ccccc1Oc1ccc(F)cc1 |
| 13200 | CC(C)(C(=O)Nc1ccccc1Oc1ccc(F)cc1)n1cncn1 |
| 5790 | COc1ccc2c(c1)OC1(CCN(C(=O)Cn3cncn3)CC1)CC2=O |

biological target: T1, Aromatase; assay: Inhibition of human recombinant aromatase using 7-methoxy-4-trifluoromethyl coumarin as substrate at 25 uM by fluorimetric analysis

| SMILES | inhibition (INH) |
| --- | --- |
| CC(C)(C)C(Cn1ccnc1)NC(=O)c1cc(N2CCOCC2)nc2ccccc12 (racemic) | Not Active |

tested on: not listed separately; assay: Solubility of the compound; format: physicochemical; call rule not given here

| SMILES | solubility |
| --- | --- |
| COc1cc2sc(NC(=O)c3ccccc3Cn3cncn3)nc2cc1Cl | Insoluble |
